According to paper PMC9054634 (RSC Advances, 2020):

Molecular target: E. coli β-glucuronidase (GUS) (Escherichia coli, UniProt P05804)
Experiment: pNPG hydrolysis by purified GUS, UPLC-UV, Lineweaver-Burk kinetics
Assay type: biochemical

Chain of E. coli β-glucuronidase (GUS) (P05804 whole entry): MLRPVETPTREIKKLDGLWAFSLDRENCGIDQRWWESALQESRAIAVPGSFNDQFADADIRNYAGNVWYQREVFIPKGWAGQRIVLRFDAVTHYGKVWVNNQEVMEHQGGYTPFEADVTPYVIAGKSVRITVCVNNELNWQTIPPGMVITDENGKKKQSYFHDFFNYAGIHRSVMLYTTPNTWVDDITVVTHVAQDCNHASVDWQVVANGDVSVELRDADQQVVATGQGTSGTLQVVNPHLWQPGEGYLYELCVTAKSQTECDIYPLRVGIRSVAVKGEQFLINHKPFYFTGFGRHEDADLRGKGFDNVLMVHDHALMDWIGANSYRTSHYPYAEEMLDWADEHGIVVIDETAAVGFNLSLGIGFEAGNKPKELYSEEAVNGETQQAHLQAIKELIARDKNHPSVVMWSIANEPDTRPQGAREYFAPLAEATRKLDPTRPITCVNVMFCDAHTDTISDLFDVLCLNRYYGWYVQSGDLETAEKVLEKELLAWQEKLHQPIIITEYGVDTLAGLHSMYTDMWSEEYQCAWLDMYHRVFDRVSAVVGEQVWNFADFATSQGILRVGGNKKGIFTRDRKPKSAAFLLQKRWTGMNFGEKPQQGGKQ

Compound	Ki [µM]
C=CCc1ccc(O)c(-c2cc(CC=C)ccc2O)c1 [Mag, Magnolol]	16.6
CN1CCN(CCCN2c3ccccc3Sc3ccc(C(F)(F)F)cc32)CC1 [TFP, Trifluoperazine]	56.9
C[C@]12CC[C@@H]3c4ccc(O)cc4CC[C@H]3[C@@H]1CC[C@@H]2O [E2, Estradiol]	31.4
